The values that follow come from patent US20120277264A1, “ANTITHROMBOTIC AGENT” (Taiho Pharmaceutical Co., Ltd., priority 2009, published 2012).

Data set [1] has as its system thrombus formation in the arteria testicularis. Put plainly: Thrombus formation inhibition, combined use with cilostazol (FeCl3-induced thrombus, Test Example 3). Particulars: male ICR mice, control 12±3 minutes, P<0.05 vs. cont. In kind it is in vivo. Here is the method: Male ICR mice (ten weeks old) were used. Rhodamine 6G (platelet fluorescence-labeling agent) was administered to the tail vein under anesthesia. With the abdomen open, the arteria testicularis was subjected to FeCl3 treatment to induce thrombus formation. Thrombus formation was observed by a real time color three-dimensional observation device, and thrombus formation time was measured. Suplatast tosilate (IPD) (10 mg/kg) was dissolved in water and orally administered for 7 days before amputating the tail to the group that was given IPD alone. Cilostazol (10 mg/kg, 30 mg/kg, 100 mg/kg), a platelet aggregation inhibitor, was dissolved in water and orally administered in a single dose one hour before amputating the tail to the group that was given cilostazol alone. To the combination group of IPD and cilostazol, IPD (10 mg/kg) was orally administered for 7 days, and cilostazol (10 mg/kg) was orally administered in a single dose one hour before amputating the tail on the 7th day of the IPD administration.

The nature of data set [2]: Amount of bleeding after tail amputation (side effect, Test Example 2). In kind it is in vivo, mice. Here is the method:
Male ICR mice (ten weeks old) were used. The last 2 mm of the tail was amputated with a scalpel under pentobarbital anesthesia, and the tail 2 cm from the tip was immediately immersed in 10 mL of physiological saline at 37° C. Twenty minutes later, the tail was removed from the physiological saline, and 1 mL of Triton X-100 (25% in water) was added. The absorbance at 546 nm was measured, and the amount of bleeding was determined from a calibration curve. Suplatast tosilate (IPD, 100 mg/kg), the compound of the present invention, and a control drug, warfarin (10 mg/kg) were dissolved in distilled water and orally administered in a single dose one hour before amputating the tail, or orally administered for 7 consecutive days before amputating the tail. Distilled water was administered to the control.

Data set [3] has as its system thrombus formation in the arteria testicularis. The data set can be described thus: Thrombus formation inhibitory action (FeCl3-induced thrombus, Test Example 1). In kind it is in vivo. The note with it: male ICR mice; for large thrombus formation time: control about 14 minutes. Here is the method: Male ICR mice (ten weeks old) were used. Rhodamine 6G (platelet fluorescence-labeling agent) was administered to the tail vein under anesthesia. With the abdomen open, the arteria testicularis was subjected to FeCl3 treatment to induce thrombus formation. Thrombus formation was observed by a real time color three-dimensional observation device, and the thrombus formation time was measured. Suplatast tosilate (IPD), the compound of the present invention, was dissolved in water and orally administered in a single dose (100 mg/kg) 30 minutes before the FeCl3 treatment or for 7 consecutive days (100 mg/kg, 30 mg/kg, 10 mg/kg) before the FeCl3 treatment. In addition, as a control drug, tirofiban (0.3 μmol/kg) was intravenously administered.

In the case of `CCOCC(O)COc1ccc(NC(=O)CC[S+](C)C)cc1.Cc1ccc(S(=O)(=O)[O-])cc1` (racemic) [IPD, (±)-[2-[4-(3-ethoxy-2-hydroxypropoxy)phenylcarbamoyl]ethyl]dimethylsulfonium p-toluenesulfonate], the thrombus formation time in data set [1] (IPD alone 10 mg/kg orally for 7 days) was 36 ± 11 min. Moreover, in data set [2] (mouse, in vivo, po, 100 mg/kg), the amount of bleeding entry is “did not have a significant effect on the amount of bleeding”. The “large thrombus formation time” value in data set [3] (100 mg/kg orally, single dose 30 minutes before FeCl3 treatment) came out at 45 min. Further, in data set [3] (oral administration for 7 consecutive days (100, 30, 10 mg/kg) vs single dose), the “large thrombus formation inhibitory action” value is “clearly enhanced”.

Regarding `CCCCS(=O)(=O)N[C@@H](Cc1ccc(OCCCCC2CCNCC2)cc1)C(=O)O` [tirofiban], the “large thrombus formation time” value in data set [3] (0.3 μmol/kg intravenously, after FeCl3 stimulation) turned out to be 60 min.

As to `O=C1CCc2cc(OCCCCc3nnnn3C3CCCCC3)ccc2N1` [cilostazol], in data set [1] (cilostazol alone, oral single dose (10, 30, 100 mg/kg tested; dose of this value not stated)), the thrombus formation time came to 25 ± 5 min.

As to `CC(=O)CC(c1ccccc1)c1c(O)c2ccccc2oc1=O` (centres unmarked) [warfarin], the amount of bleeding result is “notable effect of increasing the amount of bleeding” in data set [2] (male ICR mice, 10 mg/kg orally for 7 consecutive days before amputating the tail) and “notable effect of increasing the amount of bleeding” in data set [2] (male ICR mice, 10 mg/kg orally, single dose one hour before amputating the tail).
